Measurements taken from ChEMBL document CHEMBL1268958, “Synthesis and antihyperlipidemic activity of novel coumarin bisindole derivatives” (2010).

Key:
Assay type in all cases: functional, Mesocricetus auratus
[1] = test system: Syrian golden hamster; test: Antihyperlipidemic activity against high fat diet fed gloden syrian hamster assessed as change in HDL to total cholesterol ratio at 10 mg/kg, po for 7 days
[2] = test system: Syrian golden hamster; test: Antihyperlipidemic activity against high fat diet fed gloden syrian hamster assessed as change in total cholesterol level at 10 mg/kg, po for 7 days
[3] = test system: Syrian golden hamster; test: Antihyperlipidemic activity against high fat diet fed gloden syrian hamster assessed as change in triglyceride level at 10 mg/kg, po for 7 days
[4] = test system: Syrian golden hamster; test: Antihyperlipidemic activity against high fat diet fed gloden syrian hamster assessed as change in HDL level at 10 mg/kg, po for 7 days
[5] = test system: Syrian golden hamster; test: Antihyperlipidemic activity against high fat diet fed gloden syrian hamster assessed as change in total cholesterol level at 25 mg/kg, po for 7 days
[6] = test system: Syrian golden hamster; test: Antihyperlipidemic activity against high fat diet fed gloden syrian hamster assessed as change in triglyceride level at 25 mg/kg, po for 7 days
[7] = test system: Syrian golden hamster; test: Antihyperlipidemic activity against high fat diet fed gloden syrian hamster assessed as change in HDL to total cholesterol ratio at 25 mg/kg, po for 7 days
[8] = test system: Syrian golden hamster; test: Antihyperlipidemic activity against high fat diet fed gloden syrian hamster assessed as change in HDL level at 25 mg/kg, po for 7 days

SMILES | Activity [1] | Activity [2] | Activity [3] | Activity [4] | Activity [5] | Activity [6] | Activity [7] | Activity [8]
COC(=O)c1cc2cc(C(c3c(C)n(C)c4ccccc34)c3c(C)n(C)c4ccccc34)c3ccccc3c2oc1=O | 2% | -4% | -29% | -3% | – | – | – | –
CCOC(=O)c1cc2cc(C(c3cn(C)c4ccccc34)c3cn(C)c4ccccc34)c3ccccc3c2oc1=O | 18% | 3% | -33% | 22% | – | – | – | –
CCOC(=O)c1cc2cc(C(c3c(C)[nH]c4ccccc34)c3c(C)[nH]c4ccccc34)c3ccccc3c2oc1=O | 24% | -7% | -35% | 14% | – | – | – | –
CCOC(=O)c1cc2cc(C(c3c(C)n(C)c4ccccc34)c3c(C)n(C)c4ccccc34)c3ccccc3c2oc1=O | 11% | -38% | -45% | -31% | – | – | – | –
CCOC(=O)c1cc2cc(C(c3c(C)n(C)c4ccccc34)c3c(C)n(C)c4ccccc34)cc(C(C)CC)c2oc1=O (stereo unspecified) | 39% | -43% | -57% | -20% | – | – | – | –
COC(=O)c1cc2cc(C(c3c[nH]c4ccccc34)c3c[nH]c4ccccc34)c3ccccc3c2oc1=O | 30% | -12% | -50% | 13% | – | – | – | –
COC(=O)c1cc2cc(C(c3cn(C)c4ccccc34)c3cn(C)c4ccccc34)c3ccccc3c2oc1=O | 12% | 6% | -35% | -17% | – | – | – | –
COC(=O)c1cc2cc(C(c3c(C)[nH]c4ccccc34)c3c(C)[nH]c4ccccc34)c3ccccc3c2oc1=O | 24% | -17% | -33% | 1% | – | – | – | –
CCOC(=O)c1cc2cc(C(c3c[nH]c4ccccc34)c3c[nH]c4ccccc34)c3ccccc3c2oc1=O | 42% | -20% | -55% | 14% | – | – | – | –
CCOC(=O)c1cc2cc(C(c3c[nH]c4ccccc34)c3c[nH]c4ccccc34)cc(C(C)CC)c2oc1=O (stereo unspecified) | -14% | 28% | -10% | 11% | – | – | – | –
CCOC(=O)c1cc2cc(C(c3cn(C)c4ccccc34)c3cn(C)c4ccccc34)cc(C(C)CC)c2oc1=O (stereo unspecified) | 18% | -36% | -43% | -24% | – | – | – | –
CCOC(=O)c1cc2cc(C(c3c(C)[nH]c4ccccc34)c3c(C)[nH]c4ccccc34)cc(C(C)CC)c2oc1=O (stereo unspecified) | 9% | -21% | -39% | -13% | – | – | – | –
CC(C)c1c(C(=O)Nc2ccccc2)c(-c2ccccc2)c(-c2ccc(F)cc2)n1CC[C@@H](O)C[C@@H](O)CC(=O)O [ATORVASTATIN] | 35% | -14% | -63% | 15% | – | – | – | –
CC[C@H](C)C(=O)O[C@H]1C[C@@H](C)C=C2C=C[C@H](C)[C@H](CC[C@@H]3C[C@@H](O)CC(=O)O3)[C@H]21 [LOVASTATIN] | – | – | – | – | -9% | -29% | 12% | 3%
